# Test results taken from PubChem BioAssay AID266 (DTP/NCI, 2004).
# Records with an inconclusive call do not appear. Starred links: 1 amine or outer side, 2 acyl side, 3 side chain; linkers in the order of their positions; H or OH if unused. Positions of bridges follow the written chain, without caps; N, C: chain ends. Non-standard residues stand in square brackets, D forms with d. Residues, ends and D or L forms follow the SMILES beside them. Chains are numbered I, II in the order given. Actinocin(9to1) = Cc1c2oc3c(C)ccc(C(=O)[*:1])c3nc-2c(C(=O)[*:2])c(N)c1=O; aThr = C[C@H](O)[C@H](N)C(=O)O; NMeV = CN[C@H](C(=O)O)C(C)C; Sar = CNCC(=O)O
# Test system: Nude mice, LX-1 lung xenograft intrarenal, tumor weight T/C
# Assay: NCI In Vivo Anticancer Drug Screen. Data for tumor model Human Lung LX-1 Xenograft (intrarenal inoculation) in NU/NU BALB/C (nude) mice
# Conditions: endpoint: mean tumor weight change, higher = larger tumour
# Description: The antitumor activity of compounds was measured in mice bearing transplantable tumors. Survival or tumor size were measured and the results are expressed as the measurement made in the treated group (T) divided by the measurement made in the vehicle treated control group (C). The tumor model used in this assay is Human Lung LX-1 Xenograft (intrarenal inoculation) in NU/NU BALB/C (nude) mice
# [1] = dose: 300.0 mg/kg/injection, schedule: Q04DX003 (sc), vehicle: saline with Tween-80
# [2] = dose: 600.0 mg/kg/injection, schedule: Q04DX003 (sc), vehicle: saline with Tween-80
# [3] = dose: 1200.0 mg/kg/injection, schedule: Q04DX003 (sc), vehicle: saline with Tween-80
# [4] = dose: 200.0 mg/kg/injection, schedule: Q04DX003 (sc), vehicle: saline with Tween-80
# [5] = dose: 400.0 mg/kg/injection, schedule: Q04DX003 (sc), vehicle: saline with Tween-80
compound,measurement,setting,value
CC1(C)CC2(C)OC2C2(C1)N=NC(=Nc1ccccc1)O2 (centres undefined),T/C,[1],104 % of control
same,T/C,[2],61 % of control
same,T/C,[3],91 % of control
CCCCCn1c(C)cc(/C=C\c2ccc3cc(C)ccc3[n+]2C)c1C,T/C,"dose: 0.25 mg/kg/injection, schedule: Q01DX010 (sc), vehicle: Klucel (hydroxypropylcellulose) (HPC)",214 % of control
same,T/C,"dose: 1.0 mg/kg/injection, schedule: Q01DX010 (sc), vehicle: Klucel (hydroxypropylcellulose) (HPC)",212 % of control
same,T/C,"dose: 2.0 mg/kg/injection, schedule: Q01DX010 (sc), vehicle: Klucel (hydroxypropylcellulose) (HPC)",119 % of control
CC(=O)OCN(C)C=O,T/C,"dose: 300.0 mg/kg/injection, schedule: Q01DX010 (sc), vehicle: water",65 % of control
same,T/C,"dose: 600.0 mg/kg/injection, schedule: Q01DX010 (sc), vehicle: water",52 % of control
same,T/C,"dose: 1200.0 mg/kg/injection, schedule: Q01DX010 (sc), vehicle: water",40 % of control
same,T/C,"dose: 2400.0 mg/kg/injection, schedule: Q01DX010 (sc), vehicle: water",45 % of control
c1cc(OCC2CO2)ccc1OCC1CO1 (centres undefined),T/C,[1],172 % of control
same,T/C,[2],118 % of control
same,T/C,[3],114 % of control
same,T/C,"dose: 2400.0 mg/kg/injection, schedule: Q04DX003 (sc), vehicle: saline with Tween-80",88 % of control
OC1(CSc2ccccc2)CCCCC1,T/C,[4],75 % of control
same,T/C,[5],85 % of control
same,T/C,"dose: 800.0 mg/kg/injection, schedule: Q04DX003 (sc), vehicle: saline with Tween-80",82 % of control
same,T/C,"dose: 1600.0 mg/kg/injection, schedule: Q04DX003 (sc), vehicle: saline with Tween-80",90 % of control
N=C(N)c1ccc(/C=C/c2ccc(C(=N)N)cc2O)cc1,T/C,"dose: 37.5 mg/kg/injection, schedule: Q04DX003 (sc), vehicle: water",86 % of control
same,T/C,"dose: 75.0 mg/kg/injection, schedule: Q04DX003 (sc), vehicle: water",56 % of control
same,T/C,"dose: 150.0 mg/kg/injection, schedule: Q04DX003 (sc), vehicle: water",101 % of control
same,T/C,"dose: 300.0 mg/kg/injection, schedule: Q04DX003 (sc), vehicle: water",43 % of control
COc1cc(C[C@H]2c3cc(OC)c(OC)cc3CCN2C)c(Oc2cc3c(cc2OC)-c2c(OC)c(OC)cc4c2[C@H](C3)N(C)CC4)cc1OC,T/C,"dose: 50.0 mg/kg/injection, schedule: Q01DX010 (sc), vehicle: saline with Tween-80",85 % of control
same,T/C,"dose: 100.0 mg/kg/injection, schedule: Q01DX010 (sc), vehicle: saline with Tween-80",107 % of control
same,T/C,"dose: 200.0 mg/kg/injection, schedule: Q01DX010 (sc), vehicle: saline with Tween-80",73 % of control
same,T/C,"dose: 400.0 mg/kg/injection, schedule: Q01DX010 (sc), vehicle: saline with Tween-80",90 % of control
O=P1(N(CCCl)CCCl)NCCCO1 (centres undefined),T/C,"dose: 25.0 mg/kg/injection, schedule: Q04DX003 (ip), vehicle: saline",101 % of control
same,T/C,"dose: 50.0 mg/kg/injection, schedule: Q04DX003 (ip), vehicle: saline",92 % of control
same,T/C,"dose: 100.0 mg/kg/injection, schedule: Q04DX003 (ip), vehicle: saline",77 % of control
same,T/C,"dose: 200.0 mg/kg/injection, schedule: Q04DX003 (ip), vehicle: saline",50 % of control
Nc1nnc[se]1,T/C,"dose: 100.0 mg/kg/injection, schedule: Q04DX003 (sc), vehicle: saline with Tween-80",82 % of control
same,T/C,[4],40 % of control
same,T/C,[5],30 % of control
"Cc1c2oc3c(C)ccc(C(=O)N[C@@H]4C(=O)N[C@H](C(C)C)C(=O)N5CCC[C@H]5C(=O)N(C)CC(=O)N(C)[C@@H](C(C)C)C(=O)O[C@H]4C)c3nc-2c(C(=O)N[C@@H]2C(=O)N[C@H](C(C)C)C(=O)N3CCC[C@H]3C(=O)N(C)CC(=O)N(C)[C@@H](C(C)C)C(=O)O[C@H]2C)c(N)c1=O (I: [aThr][dV]P[Sar][NMeV] / II: [aThr][dV]P[Sar][NMeV]; ester I:1-I:C, II:1-II:C; linker I:N-II:N via Actinocin(9to1))",T/C,"dose: 50.0 micrograms/kg/injection, schedule: Q01DX010 (sc), vehicle: saline",35 % of control
same,T/C,"dose: 100.0 micrograms/kg/injection, schedule: Q01DX010 (sc), vehicle: saline",11 % of control
Cc1cc(NCCCCCCCCNc2cc(C)nc3cc(N(C)C)ccc23)c2ccc(N(C)C)cc2n1,T/C,"dose: 37.5 mg/kg/injection, schedule: Q01DX010 (sc), vehicle: distilled water + Tween-80 + alcohol",51 % of control
same,T/C,"dose: 75.0 mg/kg/injection, schedule: Q04DX003 (sc), vehicle: distilled water + Tween-80 + alcohol",64 % of control
same,T/C,"dose: 150.0 mg/kg/injection, schedule: Q04DX003 (sc), vehicle: distilled water + Tween-80 + alcohol",46 % of control
same,T/C,"dose: 300.0 mg/kg/injection, schedule: Q04DX003 (sc), vehicle: distilled water + Tween-80 + alcohol",13 % of control
